Key:
[1] = system: ATP-induced S6 phosphorylation in PDTOs; conditions: selective P2X4, P2X1 or P2X7 inhibition; cited from earlier work
[2] = system: human CRC tumor organoids; assay: Survival of human CRC tumor organoids in response to 5-FU in the absence or presence of 5-BDBD; format: cell-based; conditions: colorectal cancer organoids that do not express P2X4 protein; 5-FU +/- P2X4 inhibitor (Fig. 3C)
Description: (§1) Survival of SU-DHL5 cells in response to doxorubicin in the absence or presence of 5-BDBD (B). Survival of human CRC tumor organoids in response to 5-FU in the absence or presence of 5-BDBD (C).
(§2) The inventors had previously shown that blocking P2X4 would sensitize organoids to 5-FU treatment (Schmitt et al, Nature, 2022). The inventors now confirmed that these organoids indeed express P2X4 (Fig. 3A, CRC-organoid #1).

SU-DHL5 lymphoma cells = assay: Survival of SU-DHL5 cells in response to doxorubicin in the absence or presence of 5-BDBD; format: cell-based; conditions: lymphoma cells that do not express P2X4 protein; doxorubicin +/- 5-BDBD (Fig. 3B)
Description: as §1, §2

[3] = system: human CRC tumor organoids; conditions: organoids that express P2X4 (CRC-organoid #1); previously shown, Schmitt et al, Nature, 2022; cited from earlier work

SMILES	ATP-induced S6 phosphorylation [1]	sensitization towards P2X4 inhibition [2]	sensitization towards P2X4 inhibition (SU-DHL5 lymphoma cells)	sensitization of organoids to 5-FU treatment [3]
O=C(Nc1ccc(C(=O)Nc2ccc(C(=O)Nc3ccc(S(=O)(=O)O)c4cc(S(=O)(=O)O)cc(S(=O)(=O)O)c34)cc2)cc1)Nc1ccc(C(=O)Nc2ccc(C(=O)Nc3ccc(S(=O)(=O)O)c4cc(S(=O)(=O)O)cc(S(=O)(=O)O)c34)cc2)cc1 [NF279]	no effect	–	–	–
O=C1CN=C(c2cccc(Br)c2)c2oc3ccccc3c2N1 [5-BDBD, 5-(3-Bromophenyl)-1,3-dihydro-2H-Benzofuro[3,2-e]-1,4-diazepin-2-one]	reduced	no sensitization	no sensitization	sensitize
Clc1cccc(-c2nnnn2Cc2cccnc2)c1Cl [A-438079]	no effect	–	–	–

— patent publication EP4542231A1, “METHODS FOR IDENTIFYING AND STRATIFYING CANCERS AND CANCER PATIENTS BASED ON P2X4 RECEPTOR EXPRESSION” (Johann-Wolfgang-Goethe-Universität Frankfurt am Main, priority 2023, dated 2025)
